Measurements from paper PMC6553790 (PLoS Pathogens, 2019).
“Also recorded” adds a separate entry of the source.

Tested on: P. falciparum Cam3.II lines
Assay: Isobologram analyses (fixed-ratio drug combinations)
Format: cell-based, Plasmodium falciparum
Protocol: Assays were performed with fixed ratios of drug combinations (1:0, 4:1, 2:1, 1:1, 1:2, 1:4, and 0:1), tested in duplicate. Combinations were prepared from 16×IC50 drug stocks and tested across a range of two-fold dilutions. Assays were conducted with asynchronous cultures exposed for 72 hr or with tightly synchronized rings or trophozoites (tested at 0–3 hr or 24–27 hr post-invasion, respectively) exposed for 3 hr. Post-pulse drug washouts were conducted as described above for in vitro determination of IC50 levels. IC50 values were derived for each compound tested alone, and fractional IC50 (FIC50) values were determined for each compound tested in combination (FIC50 = […]) and plotted for each drug combination. For each combination, the mean of the sums of FIC50 values at each combination (mean ΣFIC50) was also calculated and the results illustrated using heat maps.

[1] = combined with WLL, Asynchronous, 72 hr, Cam3.II K13C580Y
[2] = combined with WLL, Asynchronous, 72 hr, Cam3.II K13WT
[3] = combined with WLW, Asynchronous, 72 hr, Cam3.II K13C580Y
[4] = combined with WLW, Asynchronous, 72 hr, Cam3.II K13WT
[5] = across asynchronous parasites, early rings and trophozoites
[6] = combined with WLL, Rings, 3 hr exposure, Cam3.II K13C580Y
[7] = combined with WLL, Rings, 3 hr exposure, Cam3.II K13WT
[8] = combined with WLL, Trophozoites, 3 hr exposure, Cam3.II K13C580Y
[9] = combined with WLL, Trophozoites, 3 hr exposure, Cam3.II K13WT
[10] = combined with WLW, Rings, 3 hr exposure, Cam3.II K13C580Y
[11] = combined with WLW, Rings, 3 hr exposure, Cam3.II K13WT
[12] = combined with WLW, Trophozoites, 3 hr exposure, Cam3.II K13C580Y
[13] = combined with WLW, Trophozoites, 3 hr exposure, Cam3.II K13WT
[14] = asynchronous parasites, rings and trophozoites (S1 Fig)
[15] = asynchronous parasites, early rings and trophozoites, Cam3.II K13WT and K13C580Y

Row | SMILES | Interaction with WLL or WLW (asynchronous parasites, 72 hr) | Mean of the sums of FIC50 (mean ΣFIC50) [1] | Mean of the sums of FIC50 (mean ΣFIC50) [2] | Mean of the sums of FIC50 (mean ΣFIC50) [3] | Mean of the sums of FIC50 (mean ΣFIC50) [4] | Interaction with WLL or WLW [5] | Mean of the sums of FIC50 (mean ΣFIC50) [6] | Mean of the sums of FIC50 (mean ΣFIC50) [7] | Mean of the sums of FIC50 (mean ΣFIC50) [8] | Mean of the sums of FIC50 (mean ΣFIC50) [9] | Mean of the sums of FIC50 (mean ΣFIC50) [10] | Mean of the sums of FIC50 (mean ΣFIC50) [11] | Mean of the sums of FIC50 (mean ΣFIC50) [12] | Mean of the sums of FIC50 (mean ΣFIC50) [13] | Interaction with WLW (isobologram) (asynchronous parasites and trophozoites) | Interaction with WLL (isobologram) [14] | Interaction with WLW (isobologram) (early ring stage) | Interaction with WLL or WLW (early rings and trophozoites) | Interaction with WLW (isobologram) [15] | Interaction with WLL (isobologram) (early rings and trophozoites)
1 | CC(=O)N1CCN(c2ccc(CN(C(=O)/C=C/c3ccc(C(C)(C)C)cc3)[C@@H](Cc3ccccc3)C(=O)N3CCN(Cc4ccc(C#N)cc4)CC3)cc2)CC1 [ACT-451840] | antagonism | 1.27 | 1.34 | 1.14 | 1.16 | – | – | – | – | – | – | – | – | – | – | – | – | – | – | –
2 | O=C(O)CCc1cccc2c1B(O)OC2 [AN3661] | antagonism | 1.58 | 1.69 | 1.63 | 1.64 | – | – | – | – | – | – | – | – | – | – | – | – | – | – | –
3 | O=C1C(O)=C([C@H]2CC[C@H](c3ccc(Cl)cc3)CC2)C(=O)c2ccccc21 [ATQ, atovaquone] | – | 1.22 | 1.33 | 1.16 | 1.28 | Additive to antagonistic; also recorded: antagonism observed in asynchronous parasites and early rings was attenuated in trophozoites | 1.54 | 1.64 | 0.99 | 1.11 | 1.20 | 1.17 | 1.07 | 1.02 | – | – | – | – | – | –
4 | C[C@@H]1C[C@@H]([C@H](O)CC2CC(=O)NC(=O)C2)C(=O)[C@@H](C)C1 [CHX, cycloheximide] | antagonism | 1.40 | 1.44 | 1.37 | 1.29 | – | – | – | – | – | – | – | – | – | – | – | – | – | – | –
5 | CCN(CC)CCCC(C)Nc1ccnc2cc(Cl)ccc12 (stereo not drawn) [CQ, chloroquine] | – | 1.53 | 1.41 | 1.36 | 1.29 | Additive to antagonistic; also recorded: moderate to potent antagonism | 1.70 | 1.69 | 1.75 | 1.89 | 1.54 | 1.45 | 1.41 | 1.57 | – | – | – | – | – | –
6 | O=C(NCCN1CCCC1)c1cc(-c2ccc(CN3CCOCC3)cc2)nc2ccc(F)cc12 [DDD107498] | antagonism | 1.60 | 1.65 | 1.44 | 1.28 | – | – | – | – | – | – | – | – | – | – | – | – | – | – | –
7 | Cc1cc(Nc2ccc(S(F)(F)(F)(F)F)cc2)n2nc(C(C)(F)F)nc2n1 [DSM265] | antagonism | 1.46 | 1.34 | 1.30 | 1.24 | – | – | – | – | – | – | – | – | – | – | – | – | – | – | –
8 | CC1(C)C(N(O)C(=O)Nc2ccc(Cl)cc2)N(c2ccc(Cl)cc2)C(=O)N1CC(=O)N/N=C/C=C/c1ccc([N+](=O)[O-])o1 (stereo not drawn) [ESI, eeyarestatin I] | – | 1.29 | 1.28 | 0.97 | 0.98 | – | 1.09 | 1.05 | 1.05 | 1.19 | 0.80 | 0.73 | 1.08 | 0.97 | additive | largely additive | Mild synergy | – | – | –
9 | O=C(CC1NCCCC1O)Cn1cnc2cc(Br)c(Cl)cc2c1=O (stereo not drawn) [HFG, halofuginone] | antagonism | 1.46 | 1.47 | 1.53 | 1.42 | – | – | – | – | – | – | – | – | – | – | – | – | – | – | –
10 | CCCCN(CCCC)CC(O)c1cc(Cl)cc2c1-c1ccc(Cl)cc1/C2=C/c1ccc(Cl)cc1 (stereo not drawn) [LMF, lumefantrine] | mild antagonism | 1.24 | 1.42 | 1.07 | 1.32 | Additive to antagonistic | 1.13 | 1.23 | 1.24 | 1.12 | 0.98 | 0.95 | 1.01 | 1.16 | – | – | – | largely additive | – | –
11 | CN(C)c1ccc2nc3ccc(=[N+](C)C)cc-3sc2c1 [MB, methylene blue] | – | 1.20 | 1.22 | 0.83 | 0.89 | – | 0.84 | 0.87 | – | – | 0.36 | 0.40 | 0.78 | 0.71 | – | synergy with WLL was limited to the early ring stage | – | – | synergy | –
12 | C[C@H]1Cc2c([nH]c3cc(Cl)c(F)cc23)[C@@]2(N1)C(=O)Nc1ccc(Cl)cc12 [NITD609] | antagonism | 1.67 | 1.58 | 1.44 | 1.39 | – | – | – | – | – | – | – | – | – | – | – | – | – | – | –
13 | c1cc([C@H]2CC[C@]3(CC2)OO[C@]2(O3)C3CC4CC(C3)CC2C4)ccc1OCCN1CCOCC1 [OZ439] | – | 1.10 | 1.21 | 0.76 | 0.85 | – | 0.79 | 0.65 | 0.67 | 0.64 | 0.40 | 0.35 | 0.51 | 0.48 | – | – | – | – | synergy | Synergy
14 | Clc1ccc2c(N3CCN(CCCN4CCN(c5ccnc6cc(Cl)ccc56)CC4)CC3)ccnc2c1 [PPQ, piperaquine] | – | 1.37 | 1.52 | 1.33 | 1.44 | Additive to antagonistic; also recorded: antagonism observed in asynchronous parasites and early rings was attenuated in trophozoites | 1.41 | 1.46 | 1.23 | 1.32 | 1.30 | 1.20 | 1.20 | 1.14 | – | – | – | – | – | –
15 | C=CC(=O)N1C/C(=C\c2ccc([N+](=O)[O-])cc2)C(=O)/C(=C/c2ccc([N+](=O)[O-])cc2)C1 [b-AP15] | – | 1.11 | 1.05 | 0.78 | 0.86 | – | 0.77 | 0.80 | 0.66 | 0.67 | 0.35 | 0.34 | 0.52 | 0.60 | – | – | – | – | synergy | Synergy
